Measured values: BindingDB's records for doi:10.1016/j.bmcl.2015.12.052 (Janssen Research and Development, 2016)

Biological target: T1, P2X purinoceptor 7 (Rattus norvegicus, UniProt Q64663)
T1 sequence (Q64663 whole entry): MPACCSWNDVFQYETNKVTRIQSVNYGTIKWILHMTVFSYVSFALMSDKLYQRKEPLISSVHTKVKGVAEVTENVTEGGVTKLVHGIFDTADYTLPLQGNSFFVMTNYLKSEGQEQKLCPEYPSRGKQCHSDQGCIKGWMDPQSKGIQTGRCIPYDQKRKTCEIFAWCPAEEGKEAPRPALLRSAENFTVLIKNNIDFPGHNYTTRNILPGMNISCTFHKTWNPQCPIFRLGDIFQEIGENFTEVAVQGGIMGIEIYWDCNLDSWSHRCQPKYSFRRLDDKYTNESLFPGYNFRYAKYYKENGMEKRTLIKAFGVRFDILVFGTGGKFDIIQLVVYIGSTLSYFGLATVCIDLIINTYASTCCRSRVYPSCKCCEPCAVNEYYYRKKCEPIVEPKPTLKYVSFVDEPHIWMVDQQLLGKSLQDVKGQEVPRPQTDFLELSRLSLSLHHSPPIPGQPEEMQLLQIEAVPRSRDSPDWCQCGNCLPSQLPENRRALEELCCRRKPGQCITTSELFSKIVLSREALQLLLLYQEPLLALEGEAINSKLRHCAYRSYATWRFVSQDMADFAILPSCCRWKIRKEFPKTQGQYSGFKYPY
Assay: Antagonist activity at rat P2X7 receptor expressed in 1321N1 cells assessed as inhibition of Bz-ATP-induced Ca2+ flux after 30 mins by FLIPR assay

IC50: > 10 µM
Compound: C[C@H]1Cn2c(nnc2-c2cnccn2)C(=O)N1Cc1ccccc1 [US10047092, 79]
